Where two headings read alike, the source gives them in different places.
Key:
[1] = molecular target: T1, PI3Kα H1047R protein (p110-α H1047R complexed with truncated p85-α) (Homo sapiens, UniProt P42336, H1047R); assay: Surface Plasmon Resonance (SPR) binding, wortmannin-blocked protein; settings: Biacore 8K, ATP site blocked with 1 μM wortmannin, 25° C.
T1 construct: The protein contained a full-length p110-α subunit harboring the H1047R mutation
Experimental: Surface Plasmon Resonance (SPR)
SPR experiments were performed on a Biacore 8K instrument. A biotinylated recombinant PI3Kα H1047R protein was used in this study. The protein contained a full-length p110-α subunit harboring the H1047R mutation with an N-terminal AviTag, complexed with a truncated p85-α subunit (amino acid residues 322-694). The protein was first incubated with 1 μM wortmannin for 30 min at RT to covalently block the ATP binding site, then immobilized onto a streptavidin sensor chip by flowing the protein through the sensor chip at typically 20 μg/mL concentration and 2 μL/min flow rate for 1200 seconds. Compound binding affinities were measured in the multi-cycle kinetics mode, at 90 μL/min flow rate with 90 seconds association time and 240 seconds dissociation time. The running buffer contained 50 mM Tris, pH 7.5, 150 mM NaCl, 0.01% Brij35, 1 mM DTT, 1 mM MgCl2, 0.05% Tween-20 and 2% DMSO. Temperature was maintained at 25° C. during experiments.

[2] = tested on: T47D pAKT (S473), PI3Kα H1047R mutation present; assay: HTRF pAKT-T47D;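 note: assay medium was RPMI with 10% FBS and 0.2 units/ml bovine insulin, without phenol red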
Experimental: Homogenous Time-Resolved Fluorescence (HTRF)—pAKT-T47D
Compounds were assayed using homogeneous time-resolved fluorescence (HTRF).
Gibco RPMI 1640 Medium, no phenol red; Gibco RPMI 1640 Medium; Gibco Trypsin-EDTA (0.5%), no phenol red; Gibco DPBS; Trypan blue solution 0.4% (Corning); Avantor Seradigm Premium Grade Fetal Bovine Serum (FBS); Greiner 784080-384 well TC treated white plates; pAKT (Ser473) HTRF; Gibco Insulin, human recombinant, zinc solution; Gibco Recovery Cell Culture Freezing Medium; Countess II FL Automated Cell Counter (ThermoFisher); Countess II Slides (ThermoFisher); Microscope; and PHERAstar FSX Microplate Reader (BMG LABTECH, Inc.).
The scinamic cell line ID was T47D.1, the HTRF detection was pAKT (S473), a PI3Kα H1047R mutation was present, the seeding density was 5000, the timepoint was 1 hour, and the medium used was RPMI+10% FBS (no phenol red)+0.2 units/ml bovine insulin.
• The cell density was not permitted to reach 100% confluence. The cells were split 1:5 when they reached ˜80% confluence. • Cells were split twice a week (Mon and Fri). • Cells over passage 18 were not used (˜2 months of maintenance). • Antibiotics were not used for tissue culture maintenance or assays. […] Protocol Day1
The procedure was as follows: • 1. Prepared ARP: • a. Stamped 12.5 nL from 10 μmM source plate to destination plate using Echo. Sealed plate immediately and froze at −20° C. if it was not used on the same day. • b. If a frozen ARP was used, the plate was thawed and spun at 1000 rpm×1 min. • 2. Preparation of cells (adherent): • a. Aspirated media from cells. Washed cells with sterile 1XPBS. Aspirated PBS and added appropriate amount of Trypsin. • b. Once cells were fully trypsinized, added appropriate media to resuspend cells. Transferred cells to a 15 mL or 50 mL conical tube. • c. Counted cells on the Countess II Cell Counter. • 3. Plating of cells: • a. Prepared cells at appropriate plating density. Dispensed 12 μL of diluted cells per well of a Greiner 784080-384 well TC treated white plate using a Multidrop Combi to columns 1-23. Added 12 uL of appropriate phenol free media only to column 24. • b. Placed plates in 37° C. tissue culture incubator for appropriate treatment time (refer to “Assay” table). • 4. Prepared HTRF Lysis Buffer • a. Calculate the amount of HTRF lysis buffer master mix needed to perform the desired experiments plus any extra dead volume required for dispensing (4 μL required per well). […] Add 4 uL Lysis buffer master mix to all wells with sample or DMSO. Centrifuge the plates for 1 minute at 1000 rpm. • c. Incubate at room temperature for 30 minutes. • 5. Prepared HTRF Antibody • a.

[3] = Homo sapiens, T47D, 1 h, read-out: T47D pAKT IC50 (nM), T47D.1 cells, pAKT (S473) HTRF, 1 hour

T1 sequence (P42336 whole entry H1047R, the tested form may be a part): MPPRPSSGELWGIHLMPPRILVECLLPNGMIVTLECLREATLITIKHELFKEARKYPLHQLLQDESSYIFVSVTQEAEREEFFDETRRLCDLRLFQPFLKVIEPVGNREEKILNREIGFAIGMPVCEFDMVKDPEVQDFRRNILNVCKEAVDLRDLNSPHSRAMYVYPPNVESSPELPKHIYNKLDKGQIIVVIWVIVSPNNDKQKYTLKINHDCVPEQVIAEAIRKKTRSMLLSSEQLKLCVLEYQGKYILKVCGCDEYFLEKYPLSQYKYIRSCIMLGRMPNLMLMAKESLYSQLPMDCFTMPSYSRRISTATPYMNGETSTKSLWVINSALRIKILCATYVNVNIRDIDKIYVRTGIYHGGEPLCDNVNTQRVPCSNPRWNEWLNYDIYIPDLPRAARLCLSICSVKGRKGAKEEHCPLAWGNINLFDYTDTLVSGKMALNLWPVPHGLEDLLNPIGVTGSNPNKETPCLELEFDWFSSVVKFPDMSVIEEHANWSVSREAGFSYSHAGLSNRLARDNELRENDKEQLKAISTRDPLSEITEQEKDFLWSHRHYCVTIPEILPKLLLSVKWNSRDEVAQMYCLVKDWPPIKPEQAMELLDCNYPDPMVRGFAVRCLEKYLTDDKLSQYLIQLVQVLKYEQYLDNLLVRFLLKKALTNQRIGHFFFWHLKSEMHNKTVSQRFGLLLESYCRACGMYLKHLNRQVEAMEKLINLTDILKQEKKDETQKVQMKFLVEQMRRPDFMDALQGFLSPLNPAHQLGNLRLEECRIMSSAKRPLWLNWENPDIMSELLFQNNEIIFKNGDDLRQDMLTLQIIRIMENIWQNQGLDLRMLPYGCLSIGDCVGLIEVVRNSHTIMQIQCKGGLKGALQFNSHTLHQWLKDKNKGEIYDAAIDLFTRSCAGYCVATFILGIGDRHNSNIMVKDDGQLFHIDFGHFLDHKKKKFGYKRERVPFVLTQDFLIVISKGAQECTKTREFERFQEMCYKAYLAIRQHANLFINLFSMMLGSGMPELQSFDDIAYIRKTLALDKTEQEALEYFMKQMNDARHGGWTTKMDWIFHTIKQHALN
T1 sequence (P27986 322-694 partner limits assumed): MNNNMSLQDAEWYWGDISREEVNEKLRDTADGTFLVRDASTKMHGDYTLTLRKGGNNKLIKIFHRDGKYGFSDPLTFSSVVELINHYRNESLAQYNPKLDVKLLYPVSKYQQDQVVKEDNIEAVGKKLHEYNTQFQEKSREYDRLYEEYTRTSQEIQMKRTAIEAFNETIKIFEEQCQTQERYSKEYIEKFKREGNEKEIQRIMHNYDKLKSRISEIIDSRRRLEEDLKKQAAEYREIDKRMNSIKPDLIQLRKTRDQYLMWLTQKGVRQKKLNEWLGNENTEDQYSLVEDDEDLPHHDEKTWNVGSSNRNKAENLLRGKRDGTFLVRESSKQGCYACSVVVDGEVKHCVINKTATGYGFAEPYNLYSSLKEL

| Structure (SMILES) | Kd [1] [nM] | IC50 [2, 3] [nM] | IC50 ([2]; read-out: T47D pAKT IC50, T47D.1 cells, pAKT (S473) HTRF, 1 hour) [nM] |
| --- | --- | --- | --- |
| Cc1c([C@@H](NC(=O)Nc2cncc(S(C)(=O)=O)c2)C(C)C)oc2ccc(F)cc12 [Compound 27, (S)-1-(1-(5-fluoro-3-methylbenzofuran-2-yl)-2-methylpropyl)-3-(5-(methylsulfonyl)pyridin-3-yl)urea] | < 100 | < 1000 | – |
| Cc1c([C@@H](NC(=O)Nc2cccnc2)C2CC2)oc2ccc(F)cc12 [Compound 37, (S)-1-(cyclopropyl(5-fluoro-3-methylbenzofuran-2-yl)methyl)-3-(pyridin-3-yl)urea] | ≥ 500 | > 5000 | – |
| Cc1c([C@@H](NC(=O)Nc2cncc(C(=O)N3CCNCC3)c2)C(C)C)oc2ccc(F)cc12 [Compound 61, (S)-1-(1-(5-fluoro-3-methylbenzofuran-2-yl)-2-methylpropyl)-3-(5-(piperazine-1-carbonyl)pyridin-3-yl)urea] | 100 to 250 | 1000 to 5000 | – |
| Cc1c([C@@H](NC(=O)Nc2cccc(S(C)(=N)=O)c2)C(C)C)oc2ccc(F)cc12 (single isomer, unassigned) [Compound 30] | 100 to 250 | – | 1000 to 5000 |
